One assay concerns the target T1, HumRadA2 (Pyrococcus furiosus, UniProt O74036, I169M/Y201A/V202Y/E219S/D220A/K221M/DEL288-301).
T1 construct: gene radA; humanised monomeric C-terminal ATPase domain of RadA; six FxxA-site mutations; E. coli BL21(DE3)
Kind of assay: ITC. The format is binding. The conditions noted are these: 25 °C, 50 mM Tris pH 7.5, 100 mM NaCl, 5 mM MgCl2; read-out: HumRadA2 / K D/μM.

The target of a further assay is T2, RAD51–BRC4 (Homo sapiens, UniProt Q06609).
T2 construct: monomerised fusion: BRC repeat 4 of BRCA2 covalently linked to the N terminus of the human RAD51 ATPase domain; with Breast cancer type 2 susceptibility protein (BRC repeat 4)
Briefly: ITC. The format is binding. The conditions noted are these: read-out: RAD51-BRC4 / K D/μM.

The next assay can be described thus: ITC. The class given is binding, Pyrococcus furiosus. The conditions noted are these: 25 °C, 50 mM Tris pH 7.5, 100 mM NaCl, 5 mM MgCl2; read-out: RAD51-BRC4 / K D/μM.

Results on five compounds are retold here after PMC4856416, “ATP half‐sites in RadA and RAD51 recombinases bind nucleotides” (FEBS Open Bio, 2016).

T2 sequence (Q06609 97-339 limits assumed): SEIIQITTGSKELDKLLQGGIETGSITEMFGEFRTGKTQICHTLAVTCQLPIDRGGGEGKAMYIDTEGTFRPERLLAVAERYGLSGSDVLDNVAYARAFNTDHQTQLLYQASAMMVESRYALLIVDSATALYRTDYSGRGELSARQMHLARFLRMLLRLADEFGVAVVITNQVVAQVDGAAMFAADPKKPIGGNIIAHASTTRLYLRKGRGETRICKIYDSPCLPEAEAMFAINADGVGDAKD
T2 sequence (P51587 1517-1551 partner limits assumed): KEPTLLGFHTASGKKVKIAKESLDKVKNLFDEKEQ

On to `Nc1ncnc2c1ncn2[C@@H]1O[C@H](COP(=O)(O)OP(=O)(O)O)[C@@H](O)[C@H]1O` [ADP], for which the figures for the Kd on HumRadA2 and on RAD51–BRC4 were 0.54 µM and 1 µM, respectively.

In the case of `Nc1ncnc2c1ncn2[C@@H]1O[C@H](COP(=O)(O)OP(=O)(O)NP(=O)(O)O)[C@@H](O)[C@H]1O` [AMPPNP], the Kd at HumRadA2 is 20 µM; at RAD51–BRC4 it was 12 µM.

On to `Nc1ncnc2c1ncn2[C@@H]1O[C@H](COP(=O)(O)OP(=O)(O)OP(=O)(O)O)[C@@H](O)[C@H]1O` [ATP], for which the Kd in “ITC” and at RAD51–BRC4 was 1 µM in each case.

With `Nc1nc2c(ncn2[C@@H]2O[C@H](COP(=O)(O)OP(=O)(O)O)[C@@H](O)[C@H]2O)c(=O)[nH]1` [GDP], the Kd at HumRadA2 worked out at 0.21 µM; on RAD51–BRC4 it was 2.5 µM.

`Nc1nc2c(ncn2[C@@H]2O[C@H](COP(=O)(O)OP(=O)(O)OP(=O)(O)O)[C@@H](O)[C@H]2O)c(=O)[nH]1` [GTP]: the figures for the Kd at HumRadA2 and at RAD51–BRC4 were 0.64 µM and 5 µM, respectively.
